In ChEMBL document CHEMBL4616595, “Targeted suppression of metastasis regulatory transcription factor SOX2 in various cancer cell lines using a sequence-specific designer pyrrole-imidazole polyamide” (Bioorg Med Chem, 2020):
The source made the active and inactive calls. The rule behind the calls is not given here.

How the values were obtained:
SOX2 promoter DNA [1] = assay: Binding affinity to SOX2 promoter 5'-CTTTGTT-3' DNA in human SW620 cells assessed as downregulation beta-catenin mRNA expression incubated for 48 hrs by qRT-PCR analysis; format: cell-based; details: SW-620
SW-620 [2] = assay: Cell cycle arrest in human SW620 cells assessed as increase in accumulation at sub-G1/G1 phase at 2 uM to 5 uM after 48 hrs by propidium iodide staining based flow cytometry analysis; format: functional
SOX2 promoter DNA [3] = assay: Binding affinity to SOX2 promoter 5'-CTTTGTT-3' DNA in human SW620 cells assessed as reduction in SOX2 mRNA expression incubated for 48 hrs by qRT-PCR analysis; format: cell-based; details: SW-620
SOX2 promoter DNA [4] = assay: Binding affinity to SOX2 promoter 5'-CTTTGTT-3' DNA (unknown origin) transfected in human SW620 cells at 2 to 10 uM incubated for 24 hrs by 6xO/s-Luc reporter gene based Steady-Glo luciferase assay; format: cell-based; details: SW-620
SOX2 promoter DNA [5] = assay: Binding affinity to SOX2 promoter 5'-CTTTGTT-3' DNA in human ES2 cells assessed as reduction in SOX2 mRNA expression incubated for 48 hrs by qRT-PCR analysis; format: cell-based
SOX2 promoter DNA [6] = assay: Binding affinity to SOX2 promoter 5'-CTTTGTT-3' DNA in human DU145 cells assessed as reduction in SOX2 mRNA expression incubated for 48 hrs by qRT-PCR analysis; format: cell-based; details: DU-145
SOX2 promoter DNA [7] = assay: Binding affinity to SOX2 promoter 5'-CTTTGTT-3' DNA in mouse B16 cells assessed as reduction in SOX2 mRNA expression incubated for 48 hrs by qRT-PCR analysis; format: cell-based
SOX2 promoter DNA [8] = assay: Binding affinity to SOX2 promoter 5'-CTTTGTT-3' DNA in mouse EG7 cells assessed as reduction in SOX2 mRNA expression incubated for 48 hrs by qRT-PCR analysis; format: cell-based
SOX2 promoter DNA [9] = assay: Binding affinity to SOX2 promoter 5'-CTTTGTT-3' DNA in mouse GL261 cells assessed as reduction in SOX2 mRNA expression incubated for 48 hrs by qRT-PCR analysis; format: cell-based
SOX2 promoter DNA [10] = assay: Binding affinity to SOX2 promoter 5'-CTTTGTT-3' DNA in mouse Hepa1 cells assessed as reduction in SOX2 mRNA expression incubated for 48 hrs by qRT-PCR analysis; format: cell-based
SOX2 promoter DNA [11] = assay: Binding affinity to SOX2 promoter 5'-CTTTGTT-3' DNA in human SW620 cells assessed as reduction in SOX2 protein level incubated for 48 hrs by immunostaining based FACS analysis; format: cell-based; details: SW-620
SOX2 promoter DNA [12] = assay: Binding affinity to SOX2 promoter 5'-CTTTGTT-3' DNA in human MCF7 cells assessed as reduction in SOX2 protein level incubated for 48 hrs by immunostaining based FACS analysis; format: cell-based
SW-620 [13] = assay: Antimigratory activity in human SW620 cells assessed as reduction in cell migration at 5 uM incubated for 24 hrs by Calcein AM staining based fluorescence microscopic analysis relative to untreated control; format: functional
SW-620 [14] = assay: Antiinvasive activity in human SW620 cells assessed as reduction in cell invasion at 5 uM incubated for 72 hrs by crystal violet staining based assay relative to untreated control; format: functional
SOX2 promoter DNA [15] = assay: Binding affinity to SOX2 promoter 5'-CTTTGTT-3' DNA in human SW620 cells assessed as down regulation of Cyclin D1 gene expression at 2 uM incubated for 48 hrs by Cy3-labelled cRNA-based microarray analysis; format: cell-based; details: SW-620
SOX2 promoter DNA [16] = assay: Binding affinity to SOX2 promoter 5'-CTTTGTT-3' DNA in human SW620 cells assessed as down regulation of […] mRNA expression at 2 uM incubated for 48 hrs by qRT-PCR analysis; format: cell-based; details: SW-620
SOX2 promoter DNA [17] = assay: Binding affinity to SOX2 promoter 5'-CTTTGTT-3' DNA in human SW620 cells assessed as down regulation of ZEB2 mRNA expression at 2 uM incubated for 48 hrs by qRT-PCR analysis; format: cell-based; details: SW-620
SOX2 promoter DNA [18] = assay: Binding affinity to SOX2 promoter 5'-CTTTGTT-3' DNA in human SW620 cells assessed as down regulation of DOCK1 mRNA expression at 2 uM incubated for 48 hrs by qRT-PCR analysis; format: cell-based; details: SW-620
SOX2 promoter DNA [19] = assay: Binding affinity to SOX2 promoter 5'-CTTTGTT-3' DNA in human SW620 cells assessed as down regulation of stemness associated PTCH1 mRNA expression at 2 uM incubated for 48 hrs by qRT-PCR analysis; format: cell-based; details: SW-620
SOX2 promoter DNA [20] = assay: Binding affinity to SOX2 promoter 5'-CTTTGTT-3' DNA in human SW620 cells assessed as upregulation of APC mRNA expression incubated for 48 hrs by qRT-PCR analysis; format: cell-based; details: SW-620
SW-620 [21] = assay: Antiproliferative activity against human SW620 cells assessed as inhibition of cell proliferation incubated for 48 hrs by [3H]thymidine incorporation based scintillation counting method; format: functional
U2OS [22] = assay: Cell cycle arrest in human U2OS cells assessed as increase in accumulation at sub-G1/G1 phase at 2 uM to 5 uM after 48 hrs by propidium iodide staining based flow cytometry analysis; format: functional
MCF7 = assay: Cell cycle arrest in human MCF7 cells assessed as reduction in accumulation at S phase at 2 uM to 5 uM after 48 hrs by propidium iodide staining based flow cytometry analysis; format: functional
U2OS [23] = assay: Cell cycle arrest in human U2OS cells assessed as reduction in accumulation at S phase at 2 uM to 5 uM after 48 hrs by propidium iodide staining based flow cytometry analysis; format: functional
U2OS [24] = assay: Cell cycle arrest in human U2OS cells assessed as reduction in accumulation at G2/M phase at 2 uM to 5 uM after 48 hrs by propidium iodide staining based flow cytometry analysis; format: functional
SOX2 promoter DNA [25] = assay: Binding affinity to SOX2 promoter 5'-CTTTGTT-3' DNA in human SW620 cells assessed as down regulation of CDC42 mRNA expression incubated for 48 hrs by qRT-PCR analysis; format: cell-based; details: SW-620
SW-620 [26] = assay: Cytotoxicity against human SW620 cells assessed as reduction in cell viability incubated for 48 hrs by MTT assay; format: functional, cell-based
MKN-45 = assay: Cytotoxicity against human MKN45 cells assessed as reduction in cell viability incubated for 48 hrs by MTT assay; format: functional, cell-based
SW-620 [27] = assay: Up regulation of p21cip1 mRNA expression in human SW620 cells incubated for 48 hrs by qRT-PCR analysis; format: functional, cell-based
SW-620 [28] = assay: Up regulation of GADD45A mRNA expression in human SW620 cells incubated for 48 hrs by qRT-PCR analysis; format: functional, cell-based
SW-620 [29] = assay: Up regulation of FASL mRNA expression in human SW620 cells incubated for 48 hrs by qRT-PCR analysis; format: functional, cell-based
SW-620 [30] = assay: Up regulation of caspase-3 mRNA expression in human SW620 cells incubated for 48 hrs by qRT-PCR analysis; format: functional, cell-based
SOX2 promoter DNA [31] = assay: Binding affinity to SOX2 promoter 5'-CTTTGTT-3' DNA in human SW620 cells assessed as reduction in SOX2 protein level by measuring SOX2 level at 2 uM incubated for 48 hrs by immunostaining based FACS analysis (reference value: 55.9%); format: cell-based; set-up: scale not given: the % may be the effect or the level left; details: SW-620

## CC(=O)Nc1cc(C(=O)Nc2cc(C(=O)Nc3cc(C(=O)NCCC(=O)Nc4cn(C)c(C(=O)Nc5cc(C(=O)NCCCC(=O)Nc6cc(C(=O)Nc7cc(C(=O)NCCC(=O)Nc8cc(C(=O)Nc9cc(C(=O)Nc%10cn(C)c(C(=O)NCCCN(C)C)n%10)n(C)c9)n(C)c8)n(C)c7)n(C)c6)n(C)c5)n4)n(C)c3)n(C)c2)n(C)c1
SOX2 promoter DNA [1]
  Activity: Active
SW-620 [2]
  Activity: Active
SOX2 promoter DNA [3]
  Activity: Active
SOX2 promoter DNA [4]
  Activity: Active
SOX2 promoter DNA [5]
  Activity: Active
SOX2 promoter DNA [6]
  Activity: Active
SOX2 promoter DNA [7]
  Activity: Active
SOX2 promoter DNA [8]
  Activity: Active
SOX2 promoter DNA [9]
  Activity: Active
SOX2 promoter DNA [10]
  Activity: Active
SOX2 promoter DNA [11]
  Activity: Dose-dependent effect
SOX2 promoter DNA [12]
  Activity: Dose-dependent effect
SW-620 [13]
  fold change (FC): 5
SW-620 [14]
  fold change (FC): 4
SOX2 promoter DNA [15]
  Activity: Active
SOX2 promoter DNA [16]
  Activity: Active
SOX2 promoter DNA [17]
  Activity: Active
SOX2 promoter DNA [18]
  Activity: Active
SOX2 promoter DNA [19]
  Activity: Active
SOX2 promoter DNA [20]
  Activity: Active
SW-620 [21]
  inhibition: Dose-dependent effect
U2OS [22]
  Activity: Active
MCF7
  Activity: Active
U2OS [23]
  Activity: Active
U2OS [24]
  Activity: Active
SOX2 promoter DNA [25]
  Activity: Active
SW-620 [26]
  Activity: Dose-dependent effect
MKN-45
  Activity: Dose-dependent effect
SW-620 [27]
  Activity: Active
SW-620 [28]
  Activity: Active
SW-620 [29]
  Activity: Active
SW-620 [30]
  Activity: Active
SOX2 promoter DNA [31]
  Activity: 37.4%
